According to ChEMBL document CHEMBL1126911, “Synthesis and binding properties of 2-amino-5-phosphono-3-pentenoic acid photoaffinity ligands as probes for the glutamate recognition site of the NMDA receptor” (J Med Chem, 1993):

Experiments:
Glutamate NMDA receptor [1] = assay: Tested for in vitro binding affinity against NMDA receptor by using [3H]-CGP- 39653 as radioligand in rat forebrain membranes; format: cell membranes, Membrane
Glutamate NMDA receptor [2] = assay: Tested for in vitro binding affinity against NMDA receptor by using [3H]-CGP- 39653 as radioligand in rat forebrain membranes.; format: cell membranes

| Compound | IC50 (Glutamate NMDA receptor [1]) [nM] | IC50 (Glutamate NMDA receptor [2]) [nM] |
| --- | --- | --- |
| NC(/C=C(\CCCCCCNC(=O)c1ccccc1)CP(=O)(O)O)C(=O)O (stereo not given) | 106 | – |
| [N-]=[N+]=Nc1ccc(C(=O)NCCCCCC/C(=C\C(N)C(=O)O)CP(=O)(O)O)cc1 (stereo not given) | – | 38 |
| [N-]=[N+]=Nc1ccc(C(=O)NCCCCCC/C(=C\C(N)C(=O)O)CP(=O)(O)O)c(O)c1 (stereo not given) | – | 36 |
| NCCCCCC/C(=C\C(N)C(=O)O)CP(=O)(O)O (stereo not given) | – | 42 |
| [N-]=[N+]=Nc1ccc(C(=O)NCCCCCC/C(=C\C(N)C(=O)O)CP(=O)(O)O)c(O)c1I (stereo not given) | – | 34 |
